Measurements taken from ChEMBL document CHEMBL1201862, “PubChem BioAssay data set” (2004).
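How tested: cells in 96-well plates exposed to compound for 48 hours at five concentrations. GI50 = concentration required for 50% inhibition of growth.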 Active and inactive are the calls of the source. Cut-off read from the data, not from the text of the source: active = GI50 up to about 1.1 µM and inactive = higher.

Legend:
Assay in all cases: NCI tumour cell line growth inhibition, 48 h
DU-145 = test system: DU-145
MDA-N = test system: MDA-N
MDA-MB-435 = test system: MDA-MB-435
NCI-H522 = test system: NCI-H522
SW-620 = test system: SW-620
786-0 = test system: 786-0
RPMI-8226 = test system: RPMI-8226
UACC-257 = test system: UACC-257
NCI-H226 = test system: NCI-H226
MDA-MB-231 = test system: MDA-MB-231
NCI/ADR-RES = test system: NCI/ADR-RES
OVCAR-5 = test system: OVCAR-5
BT-549 = test system: BT-549
TK-10 = test system: TK-10
RXF 393 = test system: RXF 393
M14 = test system: M14
IGROV-1 = test system: IGROV-1
CCRF-CEM = test system: CCRF-CEM
HOP-62 = test system: HOP-62
SK-MEL-2 = test system: SK-MEL-2

SMILES	GI50 (DU-145)	GI50 (MDA-N)	GI50 (MDA-MB-435)	GI50 (NCI-H522)	GI50 (SW-620)	GI50 (786-0)	GI50 (RPMI-8226)	GI50 (UACC-257)	GI50 (NCI-H226)	GI50 (MDA-MB-231)	GI50 (NCI/ADR-RES)	GI50 (OVCAR-5)	GI50 (BT-549)	GI50 (TK-10)	GI50 (RXF 393)	GI50 (M14)	GI50 (IGROV-1)	GI50 (CCRF-CEM)	GI50 (HOP-62)	GI50 (SK-MEL-2)
CCc1nc2cc(/N=N/c3c(O)ccc4ccccc34)ccc2[nH]1	17 µM (inactive)	23.8 µM (inactive)	19.7 µM (inactive)	18.1 µM (inactive)	22.5 µM (inactive)	16.1 µM (inactive)	10.5 µM (inactive)	14.5 µM (inactive)	22.3 µM (inactive)	20.7 µM (inactive)	22.3 µM (inactive)	17.5 µM (inactive)	18.7 µM (inactive)	18.4 µM (inactive)	12.6 µM (inactive)	19.6 µM (inactive)	19.6 µM (inactive)	3.47 µM (inactive)	21.1 µM (inactive)	19.8 µM (inactive)
Cc1cc2nc3c(C#N)c4c(c(-c5ccc(Cl)cc5)n3c2cc1C)CCC4	20.9 µM (inactive)	28.8 µM (inactive)	22.5 µM (inactive)	18.7 µM (inactive)	30.4 µM (inactive)	19.4 µM (inactive)	26.5 µM (inactive)	21.4 µM (inactive)	21.1 µM (inactive)	22.2 µM (inactive)	41.1 µM (inactive)		20.4 µM (inactive)	22.1 µM (inactive)	45 µM (inactive)	17.5 µM (inactive)	18.4 µM (inactive)	24.2 µM (inactive)	22.4 µM (inactive)	19 µM (inactive)
Cc1nc(-c2cc3ccccc3oc2=O)cs1	> 100 µM (inactive)	> 100 µM (inactive)	> 100 µM (inactive)	17 µM (inactive)	> 100 µM (inactive)	34 µM (inactive)	> 100 µM (inactive)	> 100 µM (inactive)	30.3 µM (inactive)	25.1 µM (inactive)	78.5 µM (inactive)	> 100 µM (inactive)	15.9 µM (inactive)	37.4 µM (inactive)	38.2 µM (inactive)	> 100 µM (inactive)	17.1 µM (inactive)	> 100 µM (inactive)	16.6 µM (inactive)	85.3 µM (inactive)
CCCC(CCC(N)=O)(CCC(N)=O)[N+](=O)[O-]	> 100 µM (inactive)	> 100 µM (inactive)	> 100 µM (inactive)	26.5 µM (inactive)	> 100 µM (inactive)	> 100 µM (inactive)	> 100 µM (inactive)	> 100 µM (inactive)	> 100 µM (inactive)	> 100 µM (inactive)	> 100 µM (inactive)	> 100 µM (inactive)	> 100 µM (inactive)	> 100 µM (inactive)	69.3 µM (inactive)	> 100 µM (inactive)	> 100 µM (inactive)	> 100 µM (inactive)		> 100 µM (inactive)
CCOC(=O)c1c(N2CCCC2)[nH]c(=O)c(C(c2ccco2)c2c(O)c(C(=O)OCC)c(N3CCCC3)[nH]c2=O)c1O	> 100 µM (inactive)	> 100 µM (inactive)	> 100 µM (inactive)	84.9 µM (inactive)	> 100 µM (inactive)	29.2 µM (inactive)	84.3 µM (inactive)	> 100 µM (inactive)	> 100 µM (inactive)	> 100 µM (inactive)	> 100 µM (inactive)	67.9 µM (inactive)	> 100 µM (inactive)	> 100 µM (inactive)	54.5 µM (inactive)	> 100 µM (inactive)		> 100 µM (inactive)	50.6 µM (inactive)	> 100 µM (inactive)
c1ccc(SCCc2ccncc2)cc1	> 100 µM (inactive)	> 100 µM (inactive)	> 100 µM (inactive)	31 µM (inactive)	> 100 µM (inactive)	> 100 µM (inactive)	20.5 µM (inactive)	> 100 µM (inactive)	77.1 µM (inactive)	> 100 µM (inactive)	58.7 µM (inactive)	> 100 µM (inactive)	> 100 µM (inactive)	> 100 µM (inactive)	> 100 µM (inactive)	75 µM (inactive)	> 100 µM (inactive)	31.3 µM (inactive)	> 100 µM (inactive)	> 100 µM (inactive)
O=C1N/C(=N/N=C/c2c[nH]c3ccccc23)N/C1=C\c1c[nH]c2ccccc12	30.2 µM (inactive)	27.6 µM (inactive)	24.5 µM (inactive)	11.9 µM (inactive)	18.2 µM (inactive)	17.8 µM (inactive)	12.9 µM (inactive)	28.5 µM (inactive)	17 µM (inactive)	20 µM (inactive)	27.3 µM (inactive)	39.4 µM (inactive)	20.3 µM (inactive)	94.2 µM (inactive)	28.6 µM (inactive)	29 µM (inactive)	19.1 µM (inactive)	7.74 µM (inactive)	27 µM (inactive)	20.3 µM (inactive)
CCCCOCCOC1=CC(=O)c2c(O)ccc(O)c2C1=O	1.78 µM (inactive)	0.185 µM (active)	0.185 µM (active)	1.58 µM (inactive)	1.45 µM (inactive)	1.67 µM (inactive)	2.91 µM (inactive)	1.03 µM (active)	1.72 µM (inactive)	1.95 µM (inactive)	2.12 µM (inactive)		1.63 µM (inactive)	3.1 µM (inactive)	1.66 µM (inactive)	1 µM (active)	1.91 µM (inactive)	1.22 µM (inactive)	0.458 µM (active)	1.69 µM (inactive)
CC(C)c1nc(Cl)nc(Cl)c1Cl	3.12 µM (inactive)	0.679 µM (active)	0.241 µM (active)	0.303 µM (active)	< 0.0233 µM (active)	0.104 µM (active)	0.142 µM (active)	0.256 µM (active)	2.27 µM (inactive)	1.24 µM (inactive)	0.295 µM (active)	0.414 µM (active)	0.0113 µM (active)	0.468 µM (active)	0.365 µM (active)	0.0843 µM (active)	0.172 µM (active)	< 0.01 µM (active)	0.794 µM (active)	0.239 µM (active)
COCc1nc2c(OC)c(-c3nc4ccc(N5CCN(C)CC5)nc4[nH]3)cc(OC)c2n1C	37.7 µM (inactive)	37.7 µM (inactive)	20.4 µM (inactive)	27.4 µM (inactive)	28.6 µM (inactive)	43.7 µM (inactive)	18.7 µM (inactive)	17.9 µM (inactive)	22.4 µM (inactive)	17.7 µM (inactive)	55 µM (inactive)	44.2 µM (inactive)	43.7 µM (inactive)		20.3 µM (inactive)	21.3 µM (inactive)	43.8 µM (inactive)	21 µM (inactive)	42.3 µM (inactive)	22 µM (inactive)
CC(C)(Cc1ccccc1)NC1=NCCO1	> 100 µM (inactive)	> 100 µM (inactive)	> 100 µM (inactive)	> 100 µM (inactive)	> 100 µM (inactive)	> 100 µM (inactive)	> 100 µM (inactive)	> 100 µM (inactive)	> 100 µM (inactive)	> 100 µM (inactive)	> 100 µM (inactive)	> 100 µM (inactive)	> 100 µM (inactive)	> 100 µM (inactive)	> 100 µM (inactive)	> 100 µM (inactive)	> 100 µM (inactive)	> 100 µM (inactive)		> 100 µM (inactive)
Nc1c(C(=O)c2ccc(Cl)c(Cl)c2)[nH]c(NCc2ccccc2)c1C(=S)Nc1ccccc1	15.3 µM (inactive)	3.64 µM (inactive)	5.08 µM (inactive)	4.83 µM (inactive)	3.22 µM (inactive)	11.2 µM (inactive)	2.65 µM (inactive)	13.8 µM (inactive)	11.3 µM (inactive)	4.73 µM (inactive)	2.08 µM (inactive)	13.6 µM (inactive)	15.8 µM (inactive)	17.8 µM (inactive)	10.4 µM (inactive)	3.56 µM (inactive)	11.8 µM (inactive)		17.3 µM (inactive)	12.4 µM (inactive)
CC(=O)O[C@H]1C(=O)[C@@]2(C)[C@H]([C@H](OC(=O)c3ccccc3)[C@]3(O)C[C@H](OC(=O)[C@H](O)[C@@H](NC(=O)CC(C)C)c4ccccc4)C(C)=C1C3(C)C)[C@]1(OC(C)=O)CO[C@@H]1C[C@@H]2O	0.0232 µM (active)	0.0906 µM (active)	< 0.001 µM (active)	0.00247 µM (active)	0.00289 µM (active)	0.0378 µM (active)	< 0.001 µM (active)	0.015 µM (active)	0.038 µM (active)	> 10 µM (inactive)	> 8.61 µM (inactive)	0.226 µM (active)	0.248 µM (active)	0.0383 µM (active)	0.0141 µM (active)		0.00285 µM (active)	0.00198 µM (active)	0.0221 µM (active)	0.00239 µM (active)
O=C1OC(C2OC(=O)c3cc(O)c(O)c(O)c3-c3c(O)c(O)c4oc(=O)c5c(c(O)c(O)c6oc(=O)c3c4c65)-c3c(cc(O)c(O)c3O)C(=O)OCC2O)C2OC(=O)c3c(c(O)c(O)c(O)c3[C@H]2O)-c2c1cc(O)c(O)c2O (stereo partly specified)	30.3 µM (inactive)	21.2 µM (inactive)	14 µM (inactive)	17.1 µM (inactive)	19 µM (inactive)	18.2 µM (inactive)	28.5 µM (inactive)	32 µM (inactive)	16.8 µM (inactive)	13.5 µM (inactive)	21.8 µM (inactive)	19.7 µM (inactive)	24 µM (inactive)		26.5 µM (inactive)	16.4 µM (inactive)	25.6 µM (inactive)	10.9 µM (inactive)	33.5 µM (inactive)	31.6 µM (inactive)
